Measurements published in PubChem BioAssay (NCI).
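All cell lines were grown in 96-well plates and treated with compound for 48 hours. TGI marks complete inhibition of growth.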

Assays:
Test in all cases: inhibition of tumour cell growth, NCI panel, 48 h
[1] = system: HT29 colon
[2] = system: MCF7 breast
[3] = system: EKVX NSCLC
[4] = system: CAKI-1 renal
[5] = system: SF-268 CNS
[6] = system: CCRF-CEM leukemia
[7] = system: A498 renal
[8] = system: NCI-H23 lung
[9] = system: COLO 205 colon
[10] = system: T-47D breast
[11] = system: HS 578T breast
[12] = system: RXF 393 renal
[13] = system: K-562 leukemia
[14] = system: OVCAR-4 ovarian
[15] = system: SN12C renal
[16] = system: SR leukemia
[17] = system: UACC-257 melanoma
[18] = system: UACC-62 melanoma
[19] = system: SF-539 CNS
[20] = system: NCI-H522 lung
[21] = system: MALME-3M melanoma
[22] = system: SK-OV-3 ovarian
[23] = system: MDA-MB-231 breast
[24] = system: HL-60(TB) leukemia
[25] = system: NCI-H460 lung
[26] = system: MOLT-4 leukemia
[27] = system: 786-0 renal
[28] = system: A549 NSCLC
[29] = system: HCT-15 colon
[30] = system: SK-MEL-2 melanoma
[31] = system: OVCAR-3 ovarian
[32] = system: MDA-N
[33] = system: HCT-116 colon
[34] = system: DU-145 prostate
[35] = system: TK-10 renal
[36] = system: HCC-2998 colon
[37] = system: M14 melanoma
[38] = system: SF-295 CNS
[39] = system: OVCAR-5 ovarian
[40] = system: MDA-MB-435
[41] = system: PC-3 prostate
[42] = system: U251 CNS
[43] = system: OVCAR-8 ovarian
[44] = system: NCI/ADR-RES ovarian
[45] = system: IGROV1 ovarian
[46] = system: HOP-62 NSCLC
[47] = system: BT-549 breast
[48] = system: SK-MEL-5 melanoma
[49] = system: NCI-H226 lung
[50] = system: ACHN renal
[51] = system: RPMI-8226 leukemia
[52] = system: LOX IMVI melanoma
[53] = system: SK-MEL-28 melanoma
[54] = system: SNB-19 CNS
[55] = system: KM12 colon
[56] = system: SW-620 colon
[57] = system: UO-31 renal
[58] = system: HOP-92 NSCLC

Measured: TGI

O=C1C=CC(=O)N1n1c(-c2ccccc2)n[nH]c1=O
not listed: [50] | [51] | [52] | [53] | [54] | [55] | [56] | [57] | [58]
> 100 µM: all other assays above

CCN(CC)C(=S)Oc1cc2oc(=O)cc(C)c2cc1Cl
73.7 µM: [18]
not listed: [21] | [22]
> 100 µM: all other assays above
